Results from patent US20240041876A1, “PHARMACEUTICAL COMPOSITION FOR PREVENTION OR TREATMENT OF DEGENERATIVE BRAIN DISEASES COMPRISING ABEMACICLIB AS ACTIVE INGREDIENT” (priority 2020, published 2024).

What was measured:
5×FAD mice [1] = assay: Abemaciclib versus donepezil: tau kinases phospho-GSK-3β and DYRK1A in 5×FAD mice; format: in vivo, mouse; conditions: abemaciclib 30 mg/kg or donepezil 1 mg/kg intraperitoneal daily for 14 days
Protocol: F1-generation male 5×FAD mice (stock #34848-JAX, B6Cg-Tg APPSwF1Lon, PSEN1*M146L*L286V6799Vas/Mmjax) purchased from Jackson Laboratory were used. 5×FAD mice (3 months old) were bred in a sterile facility under 12-hour light/dark controlled conditions at an ambient temperature of 22° C. After daily administration of abemaciclib (30 mg/kg, intraperitoneal administration) or vehicle (10% DMSO) to 5×FAD mice for 14 days, Y maze test on day 15 and NOR test on day 16 to 17 were performed, followed by fluorescent tissue staining or Golgi staining.
Then, each brain section was subjected to immunohistochemical staining. Brain sections were rinsed in PBS and permeabilized for 1 hour at room temperature using PBS containing 0.2% Triton X-100 and 1% BSA. Then, the primary antibody was diluted in PBST (0.2% Triton X-100 in PBS) and reacted at 4° C. for 24 hours, and the next day, the tissue was washed three times with PBST, and then reacted with a secondary antibody bound with a fluorescent signal at room temperature for 2 hours. Then, the brain sections were washed three times with PBS, placed on slides, and observed under a fluorescence microscope.

5×FAD mice [2] = assay: Abemaciclib versus donepezil: cognitive function in 5×FAD mice (Y maze, NOR); format: in vivo, mouse; conditions: abemaciclib 30 mg/kg or donepezil 1 mg/kg intraperitoneal daily for 14 days
Protocol: Then, percent alteration=(number of alterations/number of triads)×100 was obtained and used as a parameter of short-term memory. • Alteration: 1 point awarded when the mouse enters three different arms in turn • Triads: Total visits—2
The animal was allowed to start from the center of the box, and the time at which the animal was interested in the object was recorded for 5 minutes. After 24 hours, one of the two objects was replaced with fresh one, the times at which the mouse approached the old object and the fresh object were measured, and the preference for the new object was analyzed and used as a long-term memory analysis index.

5×FAD mice [3] = assay: Abemaciclib versus donepezil: astrocyte activity in 5×FAD mice (anti-GFAP, anti-6E10); format: in vivo, mouse; conditions: abemaciclib 30 mg/kg or donepezil 1 mg/kg intraperitoneal daily for 14 days
BV2 microglia = assay: MTT assay, cytotoxicity to BV2 microglia; format: cell-based; conditions: 0.1, 1, 5, 10, 25, or 50 μM; 24 hours in the absence of FBS
Protocol: Cell viability was measured using the 3-(4,5-dimethylthiazol-2-yl)-2,5-diphenyltetrazolium bromide (MTT) assay. BV2 microglia were seeded in a 96-well plate and treated with various concentrations of abemaciclib mesylate (0.1, 1, 5, 10, 25, 50 μM) for 24 hours in the absence of FBS. Then, the cells were treated with 0.5 mg/ml MTT and incubated at 37° C. for 3 hours in a 5% CO2 incubator, and absorbance was measured at 580 nm.
To determine whether or not abemaciclib is cytotoxic to BV2 microglia, BV2 microglia were treated with abemaciclib at different concentrations (0.1, 1, 5, 10, 25, or 50 μM) and then MTT assay was performed.

Structure (SMILES)	expression of DYRK1A, a tau kinase, in the cortex (5×FAD mice [1])	expression of DYRK1A, a tau kinase, in the hippocampus (5×FAD mice [1])	hippocampal phospho-GSK-3β levels (5×FAD mice [1])	short-term memory (Y maze) (5×FAD mice [2]; day 15)	long-term memory (NOR test) (5×FAD mice [2]; day 16-17)	number of astrocytes directly interacting with amyloid plaques (5×FAD mice [3])	cytotoxicity to BV2 microglia (MTT assay) (BV2 microglia)
COc1cc2c(cc1OC)C(=O)C(CC1CCN(Cc3ccccc3)CC1)C2 (stereo not shown) [donepezil]	reduced	reduced	reduced	improved	improved	reduced	
CCN1CCN(Cc2ccc(Nc3ncc(F)c(-c4cc(F)c5nc(C)n(C(C)C)c5c4)n3)nc2)CC1 [abemaciclib]							did not induce cytotoxicity
